For the assay, the system named is T1, trypsin-like protease (trypsin) from Litopenaeus vannamei.
T1 construct: native, purified from hepatopancreas (ammonium sulfate, Q-Sepharose FF); single band about 33 kDa on SDS-PAGE
The assay can be described thus: absorbance at […] nm, Lineweaver-Burk plot. It is filed as biochemical, Penaeus vannamei. Particulars: 20 mM Tris-HCl pH 8.0, 37 °C, 20 min, 0.4-2.4 mM substrate; untreated control (no cold plasma).

As usually defined, the Km is the concentration of substrate that gives half-maximal velocity. `N=C(N)NCCCC(NC(=O)c1ccccc1)C(=O)Nc1ccc([N+](=O)[O-])cc1` (racemic) [BAPNA]: the Km is 4.16 ± 0.01 mM.
